Data on four compounds can be found in patent US7432045B2 (priority 2003, dated 2008).

SMILES strings stand for the structures. Like-named read-outs stand apart in the source and are kept apart here. Peptide text beside a SMILES is read from it. * marks the point of attachment. Biotin = O=C1N[C@H]2[C@H](CS[C@H]2CCCCC(=O)*)N1; Ahx = NCCCCCC(=O)O Where only a bound is given, the exact number is not on record here.

Data set [1] relates to HSV-1 KOS mutant hrR3. Put plainly: LacZ+ virus (hrR3) entry assay with pre-adsorbed virus (entry block). It counts as cell-based. The method, then: LacZ^+ virus (hrR3) entry assay: Confluent Vero cell cultures in 96-well microtiter plates were switched to Hepes-buffered serum-free DMEM, cooled on ice to 4° C. for 30 min, and infected with hrR3 for 1 hour at 4° C. in 40 μL of medium. Unattached virus was removed by rinsing with ice-cold medium. Treatments with antiviral peptide SEQ ID NO:1, referred to as EB, or a control peptide which comprised the RRKK tetra-peptide (SEQ ID NO:16) attached to a scrambled version of the membrane transiting peptide RRKKLAALPLVLAAPLAVLA (SEQ ID NO:17) (referred to as EBX), or mock-treatments with peptide-free medium were carried out in serum-free DMEM as indicated. Virus entry was initiated by transferring cultures to 37° C. To inactivate any remaining extracellular virus, cultures were rinsed with PBS and exposed to low pH citrate buffer (40 mM citric acid, 10 mM KCl, 135 mM NaCl, pH 3.0, according to Highlander et al., J. Virol. 61:3356 (1987), for 1 min at 23° C. The citrate was rinsed off with PBS and cultures were maintained in serum-supplemented DMEM until they were fixed with 0.5% gluteraldehyde in 5×PBS for 30 min at 23° C., stained for β-galactosidase activity for 1 hour or overnight at 23° C. with X-gal (Fisher Biotech; BP1615-1) in 1×PBS containing […], 1.3 mM K4Fe(CN)6, and 1.3 mM K3Fe(CN)6, and scored for the presence of blue […] cells.
In these studies, the hrR3 virus was pre-adsorbed to cells for 1 hour at 4° C. before ice cold 25 μM EB or EBX were added in serum-free DMEM. After an additional 1 hour at 4° C., cultures were shifted to 37° C. to initiate virus entry. At 15 min intervals following the temperature shift, any virus remaining outside the cells was inactivated by washing the cultures with low pH citrate buffer. Cultures were then rinsed and returned to peptide-free serum-supplemented DMEM until they were fixed and stained for β-galactosidase 8 hours after the temperature shift.
(§1) Two assays were used to assess the ability of the TAT peptides to inhibit infection of Vero cells with the hrR3 virus. In both assays, the virus was preadsorbed to cells at 4° C. and entry was initiated in the presence of peptide by shifting the cultures to a permissive temperature (30-37° C.). One hour later, the peptide was rinsed off. The entry blocking activity was measured in half of the cultures, in which any extracellular virus remaining after the peptide treatment was inactivated with low pH citrate buffer. The rest of the cultures were exposed to PBS instead of citrate buffer and used to measure virus inactivation. Virus inactivation depended on persistent effects of the peptide lasting for a period of eight hours. At the end of that period, all cultures were fixed and infected cells were detected by staining with X-gal.
(§2) Virus (m.o.i.=0.025) was preadsorbed to Vero cells for 1 h at 4° C. before cultures were exposed to TAT-C (FIG. 15A), bTAT-9X (FIG. 15B), or n50,51TAT-C (FIGS. 15C, 15D) for 1 h at 33 (FIGS. 15A, 15B), 31 (FIG. 15C), or 37° C. (FIG. 15D). […] Inhibition of entry was measured in the citrate-treated cultures, in which any remaining external virus was inactivated immediately following exposure to peptide (●). Persistent virus inactivation lasting, at least in part, for the 8 h period following exposure to peptide, was measured in the PBS-treated cultures (◯). The IC50s measured in these experiments are included in Table 5.

For data set [2], the system named is HSV-1 KOS mutant hrR3. Put plainly: Inactivation of pre-adsorbed virus (virus inactivation). The format is cell-based. The method, then: as §1, §2
The nature of another data set: in vitro. The following applies: African green monkey.
For data set [3], the system named is HSV-1 KOS mutant hrR3. Conditions: read-out: post-entry effects IC50; peptide added after citrate treatment, 8 h.
The test system of a further data set is hrR3. Briefly: Virucidal assay. It counts as cell-based, HSV-1. As to the method: […] The treated virus was diluted 200-fold with serum-supplemented DMEM and assayed for infectivity approximately 1 hour later in microtiter wells seeded with Vero cells (3.5×10^4 cells/well) 1 d earlier. Forty or 100 microliter volumes of diluted virus were adsorbed for 1 or 2 h at 37° C. and lacZ^+ cells were scored 8 hours later. In some experiments, aliquots of diluted virus were first dialyzed (Spectra/Por; MWCO 12-14,000) overnight at 4° C. against a 60-fold excess volume of Hepes-buffered serum-supplemented DMEM or forced by syringe through 0.22 μm membranes (Millex-GV; Millipore) before the remaining infectious virus was assayed.

A further data set relates to hrR3 virions. Briefly: Inactivation of virions in solution. It counts as cell-based, HSV-1. The following applies: 37° C.; read-out: Inactivation of Virions 37° C. IC50. As to the method:
Inactivation of virions: To assess the ability of peptides to inactivate virions, 3-4×10^6 pfu/mL of virus was mixed on ice with peptide in serum-free DMEM and incubated for 1 h at 4 or 37° C. Aliquots (10 μL) were diluted 1000-fold into peptide-free serum-supplemented DMEM at 23° C. and 50 μL aliquots were assayed in triplicate for infectivity in Vero cell cultures (dilution assay). Alternatively, 10 μL aliquots were diluted into 1 mL of ice-cold peptide-free serum-supplemented DMEM and the virus was pelleted as described above (centrifugation assay). Viral pellets were then resuspended in 250 μL serum-supplemented DMEM and 50 μL aliquots were assayed in triplicate for infectivity in Vero cell cultures.
Some of the virus diluted without the addition of NaCl was pelleted immediately (Control), while the rest of the diluted virus was stored at 4° C. and pelleted 19 h later. The virus was pelleted and assayed for infectivity as described in Example 1.

For data set [4], the system named is HSV-1 KOS mutant hrR3. The following applies: read-out: inhibition of hrR3 infection IC50; serum-free conditions.
A further data set relates to HSV-1 KOS. Briefly: Plaque reduction assay. It counts as cell-based. Conditions: presence of serum. The method, then:
Cell culture and virus: The procedures for growing Vero cells and preparing high titer stocks of HSV-1 KOS as described in Grau et al., Invest. Ophthal. and Vis. Sci. 30: 2474 (1989) were utilized. Vero cells were maintained in carbonate-buffered DMEM supplemented with 5% calf serum and 5% fetal bovine serum (regular medium). For some studies, cells were switched to serum-free DMEM buffered with 25 mM HEPES (pH 7.4) and allowed to adapt to that medium for 30 min prior to experimental treatments. Vero cells were seeded into wells (0.28 cm^2) of microtiter plates either at 3.5×10^4 cells/well for use 1 day later (8×10^4 cells/well) or at 1×10^4 cells/well for use 3 days later (2×10^5 cells/well).
Plaque reduction assay: Confluent Vero cell cultures in microtiter plates were infected for 1 hour at 37° C. in 40 μL of medium. Except where indicated, peptide treatments in 40 μL of medium lasted from 1 hour before through 1 hour after infection. At the end of the adsorption period, the cultures were re-fed with 100 μL of regular medium. Plaque formation was scored 2 days later and the number of plaques scored per well was normalized to the number counted in the absence of peptide. Using an ocular micrometer, plaque size (π/2×L×S) was determined by measuring the largest plaque diameter (L) and the diameter at a 90° angle to that (S). The size of each of the first 40 scored plaques was measured except when a plaque included less than 10 rounded cells or touched the side of the well.

Setting [5] is: 33° C., read-out: Entry Block IC50.
Where [6] appears, read: 33° C., read-out: Virus Inactivation IC50 (pre-adsorbed virus).

In the case of `CC(C)C[C@H](NC(=O)[C@H](CC(=O)O)NC(=O)[C@H](CC(N)=O)NC(=O)[C@@H](NC(=O)[C@@H](NC(=O)[C@H](C)NC(=O)CNC(=O)[C@H](C)NC(=O)[C@H](Cc1ccc(O)cc1)NC(=O)CNC(=O)[C@@H]1CCCN1C(=O)[C@H](CCCNC(=N)N)NC(=O)[C@H](CCCNC(=N)N)NC(=O)[C@H](CCCNC(=N)N)NC(=O)[C@H](CCC(N)=O)NC(=O)[C@H](CCCNC(=N)N)NC(=O)[C@H](CCCNC(=N)N)NC(=O)[C@H](CCCCN)NC(=O)[C@H](CCCCN)NC(=O)[C@H](CCCNC(=N)N)NC(=O)CNC(=O)[C@H](Cc1ccc(O)cc1)NC(=O)CCCCCNC(=O)CCCC[C@@H]1SC[C@@H]2NC(=O)N[C@@H]21)C(C)C)C(C)C)C(=O)O` [bTAT-9, b - YGRKKRRQRRR-9] ({Biotin-Ahx}-YGRKKRRQRRRPGYAGAVVNDL-OH), the IC50 in the data set on HSV-1 KOS mutant hrR3 [1] (setting [5]) is 2.1 µM; with HSV-1 KOS mutant hrR3 [2] (setting [6]), 110 µM; in the data set “in vitro”, around 200 µM; with HSV-1 KOS mutant hrR3 [3], 210 µM.

On to `CC(C)C[C@H](NC(=O)CNC(=O)[C@H](CC(N)=O)NC(=O)[C@H](C)NC(=O)[C@H](Cc1ccc(O)cc1)NC(=O)[C@@H](NC(=O)[C@H](CC(=O)O)NC(=O)CNC(=O)[C@@H]1CCCN1C(=O)[C@H](CCCNC(=N)N)NC(=O)[C@H](CCCNC(=N)N)NC(=O)[C@H](CCCNC(=N)N)NC(=O)[C@H](CCC(N)=O)NC(=O)[C@H](CCCNC(=N)N)NC(=O)[C@H](CCCNC(=N)N)NC(=O)[C@H](CCCCN)NC(=O)[C@H](CCCCN)NC(=O)[C@H](CCCNC(=N)N)NC(=O)CNC(=O)[C@H](Cc1ccc(O)cc1)NC(=O)CCCCCNC(=O)CCCC[C@@H]1SC[C@@H]2NC(=O)N[C@@H]21)C(C)C)C(=O)N[C@H](C(=O)N[C@@H](C)C(=O)O)C(C)C` [bTAT-9X, b - YGRKKRRQRRR-9x] ({Biotin-Ahx}-YGRKKRRQRRRPGDVYANGLVA-OH), for which the “extent of inhibition of entry” value with HSV-1 KOS mutant hrR3 [1] (33° C.) is reported as around 90%. Also, the IC50 with HSV-1 KOS mutant hrR3 [1] (33° C., read-out: Entry Block 33° C. IC50) stood at 2 µM; in the data set on HSV-1 KOS mutant hrR3 [1] (setting [5]), 2 µM; with HSV-1 KOS mutant hrR3 [1] (33° C., read-out: inhibition of entry IC50), 2 µM; with HSV-1 KOS mutant hrR3 [1] (37° C., read-out: Entry Block 37° C. IC50), 8.7 µM; in the data set with HSV-1 KOS mutant hrR3 [1] (read-out: Entry Blocking Activity IC50), 67 µM; with HSV-1 KOS mutant hrR3 [2] (33° C., read-out: Inactivation of Pre-Adsorbed Virus 33° C. IC50), 200 µM. For the same compound, the IC50 with HSV-1 KOS mutant hrR3 [2] (setting [6]) was 200 µM; in the data set with HSV-1 KOS mutant hrR3 [2] (33° C., read-out: virus inactivation IC50), 200 µM; in the data set with HSV-1 KOS mutant hrR3 [2] (37° C., read-out: Inactivation of Pre-Adsorbed Virus 37° C. IC50) it was 63 µM; in the data set on hrR3 virions, above 1200 µM. Besides, the “Virucidal Activity 4° C. IC50” value in the data set on hrR3 (4° C.) is recorded as “None”. The “Virucidal Activity 37° C. IC50” value with hrR3 (37° C.) was “None”.

For `CC(C)C[C@H](NC(=O)CCCCCNC(=O)CCCC[C@@H]1SC[C@@H]2NC(=O)N[C@@H]21)C(=O)N[C@H](C(=O)N[C@@H](CC(C)C)C(=O)N[C@@H](C)C(=O)N[C@@H](C)C(=O)N1CCC[C@H]1C(=O)N[C@@H](CC(C)C)C(=O)N[C@@H](C)C(=O)N[C@H](C(=O)N[C@@H](CC(C)C)C(=O)N[C@@H](C)C(=O)N1CCC[C@H]1C(=O)NCC(=O)N[C@@H](CCCNC(=N)N)C(=O)N[C@@H](CCCCN)C(=O)N[C@@H](CCCCN)C(=O)N[C@@H](CCCNC(=N)N)C(=O)N[C@@H](CCCNC(=N)N)C(=O)N[C@@H](CCC(N)=O)C(=O)N[C@@H](CCCNC(=N)N)C(=O)N[C@@H](CCCNC(=N)N)C(=O)N[C@@H](CCCNC(=N)N)C(=O)N[C@@H](CS)C(N)=O)C(C)C)C(C)C` [b12TAT-C] ({Biotin-Ahx}-LVLAAPLAVLAPGRKKRRQRRRC-NH2), the IC50 in the data set on HSV-1 KOS mutant hrR3 [1] (setting [5]) was 3.3 µM; in the data set on HSV-1 KOS mutant hrR3 [2] (setting [6]) it was 11 µM; in the data set “in vitro” it was around 200 µM; with HSV-1 KOS mutant hrR3 [3] it was 100 µM.

For the compound `N=C(N)NCCC[C@H](NC(=O)[C@@H](N)CCCNC(=N)N)C(=O)N[C@@H](CCCCN)C(=O)N[C@@H](CCCCN)C(=O)O` [R-R-K-K tetramer, R-R-K-K, reference compound] (H-RRKK-OH; N-terminus and C-terminus assumed), the IC50 in the data set on HSV-1 KOS mutant hrR3 [4] was 1300 µM. Besides, in the data set with HSV-1 KOS, the “concentration with no antiviral activity” value is above 200 µM.

Usually IC50 stands for the concentration needed to halve the response being measured.
